In patent US8512964B2, “Targets for treatment of hypercholesterolemia” (The Regents of the University of California, priority 2008, dated 2013):
Residues, ends and D or L forms follow the SMILES beside them. *: point of attachment. Cbz = O=C(OCc1ccccc1)*

Experiments:
[1] = test system: Mylip LXRE; assay: Mylip promoter (LXRE) reporter assay in HEK293 cells transfected with LXR and RXR; assay type: cell-based, mouse; conditions: activation by LXRa and GW3965, functional LXRE, FIG. 6D
Experimental: A 10 Kb promotor region upstream of the mMylip transcription initiation site was analyzed for the presence of LXR binding elements. A consensus DR4 site was identified 2454 upstream of the transcription initiation site. Olignoucleotides encompassing this element were designed, annealed and tested for binding to LXR/RXR heterodimers in a standard EMSA assay. A 2.5 kB promotor fragment upstream of the transcription initiation site containing the identified LXRE was amplified by PCR from BAC clone RP23-17N24 using mMylip-prom-FWD […] (SEQ ID NO:20) or mMylip-prom-ΔFWD […] (SEQ ID NO:21) with the common antisense primer mMylip-prom-REV […] (SEQ ID NO:22). Amplified fragments were cloned as SacI/XhoI fragments into pGL3 basic (Promega). Promotor analysis was done as previously described (Joseph et al. (2002) J Biol Chem 277: 11019).

[2] = test system: Mylip; assay: Mylip expression in vivo after gavage of mice (realtime PCR); design: species or system mouse; conditions: mice gavaged 20 mg/kg twice daily for three days, FIG. 2C
Experimental: Total RNA was isolated from cells and mouse tissues using Trizol (Invitrogen). One microgram of total RNA was reverse transcribed with random hexamers using iScript reverse transcription reagents kit (Biorad). Sybergreen (Diagenode) real-time quantitative PCR assays were performed using an Applied Biosystems 7900HT sequence detector.

[3] = test system: HepG2 cells; assay: BODIPY-LDL binding and uptake assay in HepG2 cells; assay type: cell-based; conditions: 1 μM ligand, FIG. 1A
Experimental: HepG2 cells were plated at density of 40,000 cells/well. On the following day the cells were pre-treated for 8 hrs with DMSO, 1 μM GW3965, or 1 μM T0901317 in DMEM supplemented with 10% FBS. MEFs (DKO-mLxra) were plated similarly and infected on the following day with the indicated adenovirus (MOI 300) for 18 hrs. Subsequently, cells were washed twice with PBS and incubated for an additional 16 hrs in sterol deficient medium to induce expression of the LDLR. In experiments with HepG2 cells the sterol deficient medium further contained the LXR synthetic ligands indicated above. Uptake was initiated by incubating cells in 200 μl of serum deficient medium containing 5 μg/mL of BODIPY-LDL. For measuring binding of BODIPY-LDL to cells, plates were placed on ice prior to processing. Uptake of BODIPY-LDL was measured after a 30 minute incubation period at 37° C. At that point cells were washed 2× with PBS containing 0.2% BSA and lysed in 100 μl RIPA buffer supplemented with protease inhibitors. Lysates were collected and cleared by centrifugation and 30 μl of cleared lysate was transferred into a 384 well plate and measured on a Typhoon apparatus (Amersham) with filters set for BODIPY. The protein concentration of the cleared lysates was determined and results are presented as relative fluorescence normalized for protein content.

[4] = test system: LDLR; assay: Immunoblot of LDLR protein in immortalized Lxrαβ(−/−) MEFs stably expressing LXRα or vector control; assay type: cell-based, mouse; conditions: Lxrαβ(−/−) MEFs with LXRα or vector control, sterol depletion medium, FIG. 1E
Experimental: The cell lines HEK293T, HepG2, and SV589 were obtained from ATCC. HEK293T were cultured in Optimem containing 2% FBS. HepG2 and SV589 were cultured in DMEM supplemented with 10% FBS. immortalized Lxrαβ^(−/−) mouse embryonic fibroblasts (MEFs) were obtained by immortalizing E13.5 MEFs with a SV40 Large-T antigen retrovirus. To reconstitute mLxrα we transfected Phenix cells with pBabehygro or pBabehygro-mLxra. The resulting supernatant containing the corresponding retroviral particles was used to infect immortalized MEFs. Cells were selected in 800 μg/mL Hygromycin and surviving cells were used. HepG2-LDLR-GFP cells were generated by transfecting HepG2 cells with pEGFP-N1-LDLR and selecting cells with G418 (800 μg/mL).
Primary hepatocytes were isolated and maintained as previously reported (Pei et al. (2006) Nat Med 12: 1048). HEK293T cells were transfected using lipofectamine2000 (invitrogen). […] Under these conditions more than 90% of the cells were transduced as assessed by GFP immunofluorescence. […]
(§1) Total cell or tissue lysates were prepared in RIPA buffer (150 mM NaCl, 1% NP-40, 0.1% Sodium Deoxycholate, 0.1% SDS, 100 mM Tris-HCl, pH 7.4) supplemented with protease inhibitors (Roche Molecular Biochemicals). […] Protein concentration of the cleared lysates was determined using the Bradford assay (Biorad) with BSA as reference. […]

[5] = test system: LDLR; assay: LDLR ubiquitination in HEK293 cells co-transfected with LDLR, Mylip and HA-Ubiquitin; assay type: cell-based; conditions: 25 μM for 6 h, FIG. 3G
Experimental: Primary hepatocytes were isolated and maintained as previously reported (Pei et al. (2006) Nat Med 12: 1048). HEK293T cells were transfected using lipofectamine2000 (invitrogen). Typically, 0.8×10^6 cells were seeded in a 60 mm well and transfected the following day with 2 μg DNA. In experiments testing the ability of Mylip to degrade other potential protein targets a ratio of 3:1 (Mylip:target) was used. To infect MEFs and SV589 with adenovirus cells were seeded (0.2×10^6 cells/60 mm well) and infected the following day at an MOI of 300. HepG2 cells were infected at an MOI of 80. Primary hepatocytes were infected 4 hrs after plating at an MOI of 20. Infections were allowed to proceed for 18 hrs after which culture medium was replaced. Under these conditions more than 90% of the cells were transduced as assessed by GFP immunofluorescence. Where indicated, cells were subsequently sterol starved by incubating cells in DMEM supplemented with 10% LPDS, 5 μM Simvastatin, and 100 μM Mevalonic acid for an additional 18 hrs (sterol deficient medium).
as §1

O=C(O)Cc1cccc(OCCCN(Cc2cccc(C(F)(F)F)c2Cl)CC(c2ccccc2)c2ccccc2)c1 [GW3965]
increase in reporter activity [1]: ~4 fold
Mylip expression in vivo [2]: induced
binding and uptake of bodipy labeled-LDL [3]: decreased
LDLR protein [4]: decreased LDLR only in cells expressing LXRα

CC(C)CC[C@@H](O)[C@@H](C)[C@H]1CC[C@H]2[C@@H]3CC=C4C[C@@H](O)CC[C@]4(C)[C@H]3CC[C@]12C [22(R)-hydroxycholesterol]
LDLR protein [4]: decreased LDLR protein in the absence or presence of LXRs

CC(C)C[C@@H](C=O)NC(=O)[C@H](CC(C)C)NC(=O)[C@H](CC(C)C)NC(=O)OCc1ccccc1 [MG132] (Cbz-Leu-Leu-Leu-aldehyde)
Mylip expression [5]: greatly stabilizing
Mylip-dependent level of LDLR ubiquitination [5]: did not increase

O=S(=O)(c1ccccc1)N(CC(F)(F)F)c1ccc(C(O)(C(F)(F)F)C(F)(F)F)cc1 [T0901317]
binding and uptake of bodipy labeled-LDL [3]: decreased
